Measured values: US20240016875A1, “SHAN-ZHA FOR THE TREATMENT OF DEPRESSION AND ANXIETY DISORDERS” (THE OPEN UNIVERSITY, priority 2020, published 2024)
“Also recorded” adds a separate entry of the source.

Tests used:
[1] = test system: stressed mice; experiment: Elevated plus maze (EPM), UCMS-stressed mice, Examples 1-3; assay type: in vivo; conditions: UCMS-stressed male ICR mice; herbs and NHT 30 mg/kg, escitalopram 15 mg/kg i.p., 3 weeks; vs vehicle
Protocol: ICR outbred 28-30 days old male mice (Envigo, Israel) were maintained in the vivarium of the Open University lab in Hadassah Ein Karem medical cement, Jerusalem. Mice were group housed (5 mice per cage) and each cage contained mice from all treatment groups. Mice were given ad libitum access to food and water except during stressor application (with the exclusion of the light/dark cycle reversal). Mice kept on a reversed 12 h light/dark cycle (lights on 7:00 pm-7:00 am) while experimental procedures were performed during the dark phase under red light. All experiments were approved by the Open University of Israel committee for animal care and use. Methods were carried out in accordance with the NIH guidelines.
The EPM task was performed as previously described [6]. Shortly, each mouse was placed in the center of the maze and video recorded for 5 min. Anxiety-like behavior was expressed as the time the mouse spent in the open, unprotected arms of the maze. […]

[2] = test system: stressed mice; experiment: Tail suspension test (TST), UCMS-stressed mice, Examples 1-3; assay type: in vivo; conditions: UCMS-stressed male ICR mice; herbs and NHT 30 mg/kg, escitalopram 15 mg/kg i.p., 3 weeks; vs vehicle
[3] = test system: BDNF; experiment: BDNF ELISA of hippocampus and PFC, stressed mice; assay type: in vivo; conditions: UCMS-stressed mice; herbs and NHT 30 mg/kg, escitalopram 15 mg/kg i.p., 3 weeks; vs vehicle
Protocol: Mice were decapitated, and their brains were placed on ice. Serial sections (1 mm wide) were cut onto slides, and tissue punches of the hippocampus and PFC (1.7 mm diameter) were taken. Tissue punches were homogenized in cold extraction buffer (Tris-buffered saline, pH 8.0, with 1% NP-40, 10% glycerol, 5 mM sodium metavanadate, 10 mM PMSF, 100 μg/ml aprotinin and 10 μg/ml leupeptin). Homogenates were acidified with 0.1 M HCl (pH 3.0), incubated at room temperature (22-24° C.) for 15 min, and neutralized (pH 7.6) with 0.1 M NaOH. Homogenates were then microfuged at 7000×g for 10 min. BDNF levels were quantified using sandwich ELISA (R&D systems, Minneapolis, MN, USA) according to the manufacturer's instructions.

[4] = Body weight monitoring, stressed mice; assay type: in vivo; conditions: UCMS-stressed mice, Shan-zha and NHT 30 mg/kg, escitalopram 15 mg/kg i.p., 3 weeks, vs vehicle
Protocol: Crataegus pinnatifida, Triticum aestivum, Lilium brownii and Fructus zizyphi jujuba were purchased as freeze-dried granules (KPC Products, Inc., Irvine, CA, USA). Each herb was dissolved in saline with 1% dimethylsulfoxide (DMSO) to a final concentration of 0.47 mg/ml and injected i.p. individually (30 mg/kg) or with the other components to form the formula (NHT, 30 mg/kg). […] Vehicle treatment included i.p. injection of saline with 1% DMSO. All treatments were carried out for 3 weeks. Mice were weighed every 3 days throughout the treatment period. Change in weight was calculated as final (weight-initial weight)/initial weight×100.

[5] = test system: dams; experiment: EPM in dams after restrain stress during gestation; assay type: in vivo, mice; conditions: PND21, 15 mg/kg s.c. daily PND1-PND21
Protocol: The EPM task was performed as previously described. Shortly, each mouse was placed in the center of the maze and video recorded for 5 min. Anxiety-like behavior was expressed as the time the mouse spent in the open, unprotected arms of the maze.
Female (n=40) and male (n=5) ICR outbred mice (100 days old; Envigo RMS, Jerusalem, Israel) were housed at 22±1° C. under 12 h light/dark cycles in the vivarium of the Open University lab in Hadassah medical center, Jerusalem. Mice had ad libitum access to rodent chow and water. Mice were housed in standard cages with a bed of woodchips and a piece of cotton wool for enrichment. All experiments were performed during the dark phase of the cycle. Male mice were used to father pups and were housed apart (5 per cage) from females until mating. […] Once a vaginal plug was identified, the females were transferred to a separate cage until parturition. Overall, 455 pups were delivered of which 317 (male: n=165; female: n=152) were designated for this study. Unassessed pups were maintained with littermates to avoid additional stress and ensure similar conditions. […]
Following mating, dams were separated to individual cages and were observed periodically to ensure onset of pregnancy. […] Shortly after, anxiety-like behavior was assessed on the EPM and dams were assigned to treatment group (escitalopram/shan-zha/vehicle). […]

[6] = test system: stressed mice; experiment: Open Field Test (OFT), UCMS-stressed mice, Example 7; assay type: in vivo; conditions: 30 mg/kg (escitalopram 15 mg/kg) i.p., 3 weeks, vs vehicle
Protocol: Animals. ICR outbred mice (Envigo RMS (Harlen), Israel) are kept in the vivarium of the Open University lab in Hadassah medical center, Jerusalem. Mice are kept on a reversed 12 h light/dark cycle and given ad libitum access to food and water. All experiments are performed during the dark phase under red light (7:00-19:00). All experiments have been approved by the committee for animal care and use according to the NIH guidelines. Drugs. Drugs are dissolved in saline and 1% DMSO to the desired concentration and administered i.p. Herbal mixture and Shan-zha (30 mg/kg) will be prepared by dissolving each component (KPC Products, Inc., CA, USA) to a final concentration of 0.47 mg/ml. […] Unpredictable chronic mild stress (UCMS). Mice are exposed to UCMS for 4 weeks at the age of 4 weeks as previously described. Open Field Test (OFT). This test reflects the conflict between the innate fear that mice have of the central area of the field versus their desire to explore new environments. When anxious, the natural tendency of mice is to prefer staying close to the walls. […] Anxiety-like behavior is expressed as the time the animal spent in the center area of the field (Walsh, R. N. and R. A. Cummins, Psychol Bull, 1976. 83(3): p. 482-504). Locomotor activity are expressed as the percentage of time that the mouse moved in the arena in a velocity above 0.1 pixel/sec.

[7] = test system: stressed mice; experiment: Forced Swim Test (FST), UCMS-stressed mice, Example 7; assay type: in vivo; conditions: 30 mg/kg (escitalopram 15 mg/kg) i.p., 3 weeks, vs vehicle
Protocol: Animals. ICR outbred mice (Envigo RMS (Harlen), Israel) are kept in the vivarium of the Open University lab in Hadassah medical center, Jerusalem. Mice are kept on a reversed 12 h light/dark cycle and given ad libitum access to food and water. All experiments are performed during the dark phase under red light (7:00-19:00). All experiments have been approved by the committee for animal care and use according to the NIH guidelines. Drugs. Drugs are dissolved in saline and 1% DMSO to the desired concentration and administered i.p. Herbal mixture and Shan-zha (30 mg/kg) will be prepared by dissolving each component (KPC Products, Inc., CA, USA) to a final concentration of 0.47 mg/ml. […] Unpredictable chronic mild stress (UCMS). Mice are exposed to UCMS for 4 weeks at the age of 4 weeks as previously described. Forced Swim Test (FST). This test is based upon the evaluation of immobility as a measure of behavioral despair and are performed as previously described. Depressive-like behavior are expressed as the time the mouse was immobile defined as cessation of limb movements except minor movement necessary to keep the mouse afloat.

CN(C)CCC[C@@]1(c2ccc(F)cc2)OCc2cc(C#N)ccc21 [escitalopram]
time spent in the open arms of the EPM (anxiety-like behavior) [1]: spent more time in the open arms of the maze in comparison with vehicle-treated mice; also recorded: reduced anxiety-like behavior in the EPM compared to vehicle | time spent immobile in the TST (depressive-like behavior) [2]: spent less time immobile in comparison with vehicle-treated mice; also recorded: reduced depressive-like behavior in the Tail suspension test (TST) compared to vehicle | BDNF levels in the PFC [3]: elevations in BDNF levels in the PFC compared to vehicle-treated mice; also recorded: elevated BDNF levels in the PFC compared to vehicle | hippocampal BDNF levels [3]: elevations in hippocampal BDNF levels compared to vehicle-treated mice; also recorded: elevated hippocampal BDNF levels compared to vehicle | weight change [4]: significantly increased weight compared to vehicle | weight change ([4]; listed as Escitalopram): higher weight gain in comparison with vehicle-treated mice | anxiety-like behavior in the EPM, treated stressed dams vs saline-treated stressed dams ([5]; restrain stress during gestation, 15 mg/kg): saline-treated stressed dams demonstrated elevated anxiety-like behavior compared to both shan-zha- and escitalopram-treated stressed dams; also recorded: the stress-vehicle group demonstrated increased anxiety-like behavior compared to the naïve-vehicle, stress-escitalopram and stress-shan-zha groups | effect of stress manipulation on time spent in open arms within treatment group, dams ([5]; stressed vs naive dams): Stress manipulation did not affect time spent in open arms | anxiety-like behavior in the OFT [6]: exhibited reduced anxiety-like behavior in the OFT compared to vehicle-treated stressed mice | depressive-like behavior in the FST [7]: exhibited reduced depressive-like behavior in the FST compared to vehicle-treated stressed mice
